Data: PubChem BioAssay AID493251 (Sanford-Burnham Center for Chemical Genomics, 2011)
Several values for one entry are separate records, joined by “and”; a condition that tells them apart may be missing. Equal entries are not always repeated.

Test system: HEK293T NF-kB-Luc cytotoxicity, resazurin fluorescence, 14 h;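 active = compounds toxic to HEK293 cells with IC50 at or below 20 µM; inactive = the rest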
Test: cytotoxicity in HEK293T NF-kB-Luc cells, SAR follow-up, cytotoxicity control for NF-kB activator project, cell-based, resazurin fluorescence (AID 493251)

## CCCC(=O)NC(c1ccc(OC)cc1)c1ccc2cccnc2c1O (stereo unspecified)
  IC50: 15.8 µM and > 33.2 µM (inactive)
